In PubChem BioAssay (NCI):
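Results reflect a 48-hour exposure of cells in 96-well plates to compound at five concentrations. The concentration for full growth arrest is given as TGI.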

What was measured:
Assay in all cases: DTP human tumour cell line panel, 48 h
[1] = test system: K-562 leukemia
[2] = test system: SR leukemia
[3] = test system: MDA-MB-435
[4] = test system: NCI-H460 lung
[5] = test system: SK-MEL-2 melanoma
[6] = test system: MCF7 breast
[7] = test system: SF-295 CNS
[8] = test system: ACHN renal
[9] = test system: LOX IMVI melanoma
[10] = test system: MALME-3M melanoma
[11] = test system: RXF 393 renal
[12] = test system: OVCAR-4 ovarian
[13] = test system: NCI/ADR-RES ovarian
[14] = test system: RPMI-8226 leukemia
[15] = test system: HOP-62 NSCLC
[16] = test system: MDA-N
[17] = test system: NCI-H226 lung
[18] = test system: EKVX NSCLC
[19] = test system: MDA-MB-231 breast
[20] = test system: IGROV1 ovarian
[21] = test system: PC-3 prostate
[22] = test system: HT29 colon
[23] = test system: HS 578T breast
[24] = test system: HL-60(TB) leukemia
[25] = test system: CCRF-CEM leukemia
[26] = test system: SK-MEL-28 melanoma
[27] = test system: U251 CNS
[28] = test system: T-47D breast
[29] = test system: A549 NSCLC
[30] = test system: DU-145 prostate
[31] = test system: NCI-H23 lung
[32] = test system: UACC-62 melanoma
[33] = test system: M14 melanoma
[34] = test system: COLO 205 colon
[35] = test system: A498 renal
[36] = test system: SF-268 CNS
[37] = test system: SNB-19 CNS
[38] = test system: SW-620 colon
[39] = test system: KM12 colon
[40] = test system: NCI-H522 lung
[41] = test system: UO-31 renal
[42] = test system: HCT-15 colon
[43] = test system: HOP-92 NSCLC
[44] = test system: CAKI-1 renal
[45] = test system: 786-0 renal
[46] = test system: SN12C renal
[47] = test system: MOLT-4 leukemia
[48] = test system: UACC-257 melanoma
[49] = test system: OVCAR-8 ovarian
[50] = test system: HCT-116 colon
[51] = test system: HCC-2998 colon
[52] = test system: BT-549 breast
[53] = test system: SK-OV-3 ovarian
[54] = test system: TK-10 renal
[55] = test system: OVCAR-5 ovarian
[56] = test system: SK-MEL-5 melanoma
[57] = test system: SNB-75 CNS
[58] = test system: SF-539 CNS
[59] = test system: OVCAR-3 ovarian

Q: Which TGI [1] does the source give for `CC1=C(C)C2(C#N)C(=O)N3C(=NC(c4ccccc4)NC3c3ccccc3)C2(C#N)C(c2ccccc2)N1` (centres undefined) here?
A: > 100 µM

Q: And the TGI [2]?
A: > 100 µM

Q: What about the TGI [3] of the same compound?
A: > 100 µM

Q: What about the TGI [4] of the same compound?
A: > 100 µM

Q: And the TGI [5]?
A: > 100 µM

Q: And the TGI [6]?
A: > 100 µM

Q: What about the TGI [7] of the same compound?
A: > 100 µM

Q: What about the TGI [8] of the same compound?
A: > 100 µM

Q: And the TGI [9]?
A: > 100 µM

Q: And the TGI [10]?
A: > 100 µM

Q: What about the TGI [11] of the same compound?
A: > 100 µM

Q: What about the TGI [12] of the same compound?
A: > 100 µM

Q: What about the TGI [13] of the same compound?
A: > 100 µM

Q: And the TGI [14]?
A: > 100 µM

Q: What about the TGI [15] of the same compound?
A: > 100 µM

Q: And the TGI [16]?
A: > 100 µM

Q: What about the TGI [17] of the same compound?
A: > 100 µM

Q: And the TGI [18]?
A: > 100 µM

Q: What about the TGI [19] of the same compound?
A: > 100 µM

Q: What about the TGI [20] of the same compound?
A: > 100 µM

Q: What about the TGI [21] of the same compound?
A: > 100 µM

Q: What about the TGI [22] of the same compound?
A: > 100 µM

Q: What about the TGI [23] of the same compound?
A: > 100 µM

Q: And the TGI [24]?
A: > 100 µM

Q: And the TGI [25]?
A: > 100 µM

Q: What about the TGI [26] of the same compound?
A: > 100 µM

Q: And the TGI [27]?
A: > 100 µM

Q: And the TGI [28]?
A: > 100 µM

Q: What about the TGI [29] of the same compound?
A: > 100 µM

Q: What about the TGI [30] of the same compound?
A: > 100 µM

Q: And the TGI [31]?
A: > 100 µM

Q: What about the TGI [32] of the same compound?
A: > 100 µM

Q: And the TGI [33]?
A: > 100 µM

Q: What about the TGI [34] of the same compound?
A: > 100 µM

Q: And the TGI [35]?
A: > 100 µM

Q: What about the TGI [36] of the same compound?
A: > 100 µM

Q: What about the TGI [37] of the same compound?
A: > 100 µM

Q: What about the TGI [38] of the same compound?
A: > 100 µM

Q: And the TGI [39]?
A: > 100 µM

Q: What about the TGI [40] of the same compound?
A: > 100 µM

Q: What about the TGI [41] of the same compound?
A: > 100 µM

Q: What about the TGI [42] of the same compound?
A: > 100 µM

Q: What about the TGI [43] of the same compound?
A: > 100 µM

Q: And the TGI [44]?
A: > 100 µM

Q: What about the TGI [45] of the same compound?
A: > 100 µM

Q: And the TGI [46]?
A: > 100 µM

Q: What about the TGI [47] of the same compound?
A: > 100 µM

Q: What about the TGI [48] of the same compound?
A: > 100 µM

Q: And the TGI [49]?
A: > 100 µM

Q: What about the TGI [50] of the same compound?
A: > 100 µM

Q: What about the TGI [51] of the same compound?
A: > 100 µM

Q: What about the TGI [52] of the same compound?
A: > 100 µM

Q: And the TGI [53]?
A: > 100 µM

Q: And the TGI [54]?
A: > 100 µM

Q: And the TGI [55]?
A: > 100 µM

Q: And the TGI [56]?
A: > 100 µM

Q: For `CN(N=O)C(=O)NNC(=O)N(C)N=O`, which TGI [1] is on record?
A: > 100 µM

Q: What about the TGI [2] of the same compound?
A: > 100 µM

Q: And the TGI [3]?
A: > 100 µM

Q: What about the TGI [4] of the same compound?
A: > 100 µM

Q: What about the TGI [5] of the same compound?
A: > 100 µM

Q: What about the TGI [6] of the same compound?
A: > 100 µM

Q: And the TGI [7]?
A: > 100 µM

Q: What about the TGI [8] of the same compound?
A: > 100 µM

Q: What about the TGI [9] of the same compound?
A: > 100 µM

Q: What about the TGI [11] of the same compound?
A: 85.7 µM

Q: And the TGI [12]?
A: > 100 µM

Q: What about the TGI [13] of the same compound?
A: > 100 µM

Q: And the TGI [14]?
A: > 100 µM

Q: What about the TGI [15] of the same compound?
A: > 100 µM

Q: What about the TGI [16] of the same compound?
A: > 100 µM

Q: And the TGI [17]?
A: > 100 µM

Q: And the TGI [18]?
A: > 100 µM

Q: What about the TGI [19] of the same compound?
A: > 100 µM

Q: And the TGI [20]?
A: > 100 µM

Q: What about the TGI [21] of the same compound?
A: > 100 µM

Q: What about the TGI [22] of the same compound?
A: > 100 µM

Q: And the TGI [23]?
A: > 100 µM

Q: What about the TGI [24] of the same compound?
A: > 100 µM

Q: What about the TGI [25] of the same compound?
A: > 100 µM

Q: What about the TGI [26] of the same compound?
A: > 100 µM

Q: And the TGI [27]?
A: > 100 µM

Q: What about the TGI [28] of the same compound?
A: > 100 µM

Q: And the TGI [29]?
A: > 100 µM

Q: What about the TGI [30] of the same compound?
A: > 100 µM

Q: What about the TGI [31] of the same compound?
A: > 100 µM

Q: What about the TGI [32] of the same compound?
A: > 100 µM

Q: What about the TGI [33] of the same compound?
A: > 100 µM

Q: What about the TGI [34] of the same compound?
A: > 100 µM

Q: What about the TGI [35] of the same compound?
A: > 100 µM

Q: And the TGI [36]?
A: > 100 µM

Q: What about the TGI [57] of the same compound?
A: > 100 µM

Q: What about the TGI [37] of the same compound?
A: > 100 µM

Q: What about the TGI [38] of the same compound?
A: > 100 µM

Q: And the TGI [58]?
A: > 100 µM

Q: And the TGI [39]?
A: > 100 µM

Q: And the TGI [40]?
A: > 100 µM

Q: And the TGI [41]?
A: > 100 µM

Q: What about the TGI [42] of the same compound?
A: > 100 µM

Q: And the TGI [43]?
A: > 100 µM

Q: What about the TGI [44] of the same compound?
A: > 100 µM

Q: What about the TGI [59] of the same compound?
A: > 100 µM

Q: What about the TGI [45] of the same compound?
A: 95.1 µM

Q: And the TGI [46]?
A: > 100 µM

Q: What about the TGI [47] of the same compound?
A: > 100 µM

Q: What about the TGI [48] of the same compound?
A: > 100 µM

Q: And the TGI [49]?
A: > 100 µM

Q: And the TGI [50]?
A: > 100 µM

Q: What about the TGI [51] of the same compound?
A: > 100 µM

Q: And the TGI [52]?
A: > 100 µM

Q: What about the TGI [53] of the same compound?
A: > 100 µM

Q: What about the TGI [54] of the same compound?
A: > 100 µM

Q: And the TGI [55]?
A: > 100 µM

Q: What about the TGI [56] of the same compound?
A: > 100 µM
